Results: US20220002429A1, “TUMOR CELL AGGREGATION INHIBITORS' FOR TREATING CANCER” (Northwestern University, priority 2018, published 2022)
Residues, ends and D or L forms follow the SMILES beside them. *: point of attachment. Cbz = O=C(OCc1ccccc1)*

How the values were obtained:
MDA-MB-231 cells [1] = test: MDA-MB-231 cell aggregation in suspension on Poly-HEMA-coated plates; format: cell-based, human; settings: 4-MU 0.4 mM/L pre-treatment for 48 h; aggregation at 1 h
Method: Hyaluronan inhibition. Two complementary approaches were utilized to inhibit hyaluronan, the known CD44 ligand, in the two models. First, for the TN PDX model, dissociated cells were treated with hyaluronan antagonist (o-HA, HA oligomers) at 100 μg/mL during the 72-hour aggregation assays. For MDA-MB-231 cells, the hyaluronic acid synthase inhibitor 4-methylumbelliferone (4-MU, 0.4 mM/L) was added to the adherent culture. After 48 h of treatment, the cells were trypsinized and transferred to a poly-hydroxyethyl methacrylate (Poly-HEMA, Sigma-Aldrich) coated plate, and the images were taken at the indicated times by Leica microscopy.
Cell clustering assay. Freshly dissociated primary tumor cells in single cell suspension were seeded in collagen type I-coated 96-well plates. The plates were put into the IncuCyte live cell imaging system (Essen BioScience), and live images were taken every 2-4 h for up to one week. The cluster number and size were analyzed by Incucyte ZOOM software (Essen BioScience). In specific experiments, primary tumor cells might be sorted based on the expression of CD44 prior to seeding. In other experiments, seeded tumor cells might be transfected with siRNAs (100 nM) or treated with various inhibitors during the clustering assays. […]

TN1 PDX tumor cells = test: ex vivo aggregation (clustering) assay of dissociated PDX tumor cells, IncuCyte time-lapse imaging; format: cell-based, human
Method: Cell clustering assay. Freshly dissociated primary tumor cells in single cell suspension were seeded in collagen type I-coated 96-well plates. The plates were put into the IncuCyte live cell imaging system (Essen BioScience), and live images were taken every 2-4 h for up to one week. The cluster number and size were analyzed by Incucyte ZOOM software (Essen BioScience). In specific experiments, primary tumor cells might be sorted based on the expression of CD44 prior to seeding. In other experiments, seeded tumor cells might be transfected with siRNAs (100 nM) or treated with various inhibitors during the clustering assays. For cell viability analysis during clustering, the IncuCyte Cytotox Red reagent (Essen BioScience) was added to the medium according to the manufacturer's instructions.

MDA-MB-231 cells [2] = test: orthotopic breast tumor model: primary tumor, spontaneous lung metastasis and blood CTC clusters; format: in vivo, mice
From the text: FIG. 21. Inhibition of EGFR blocks spontaneous metastasis. A. Timeline of treatment after palpable tumor formation in PDX model TN1. B. Bioluminescent images of tumor growth before or 1, or 17 days after treatment. C. Primary tumor signal over time, ns. D. Tumor images after 2 weeks of treatment. E. Bioluminescent images of lungs after treatment. F. Measured signal of lungs. p=0.09. G. Timeline of treatment of mice with Erlotinib or vehicle for FIGS. 19H-L. H. Bioluminescence images of orthotopically-implanted breast tumors treated with vehicle or 50 mg/kg Erlotinib (daily orally) for 4 weeks. I. BLI signal (total flux) histograms of the lungs from vehicle and Erlotinib-treated breast tumor bearing mice as shown in H. J. Bioluminescence images of dissected lungs from tumor bearing mice treated with vehicle or Erlotinib in C. K. Fluorescence images of dissected lungs from tumor bearing mice treated with vehicle or Erlotinib in C. L. Representative mix-color tumor cell clusters in blood from tumor bearing mice treated with vehicle or Erlotinib in C.
Inhibition of EGFR successfully blocks clustering and lung colonization. Using flow cytometry, we found enriched EGFR expression in clustered cells in the blood of breast cancer patients (FIG. 25). […] Furthermore, tdTomato- and eGFP-labeled MDA-MB-231 cells were implanted orthotopically together into the mammary fat pads of mice for examination of tumor cell cluster-mediated polyclonal, spontaneous lung metastasis.
Mouse models and tumor dissociation. 8-10 weeks old NOD/SCIDmice were used for PDXs and human MDA-MB-231 cell-based xenograft studies. The triple negative PDXs and MDA-MB-231 cells were lentivirally labeled by eGFP, tdTomato, Luc2-eGFP (L2G), or Luc2-tdTomato (L2T) using the lentiviruses and labeling protocol as described previously^3. PDX tumors were harvested and dissociated either with Collagenase III (TN1 model) or Liberase TH and TM research grade (TN2 model and lung tissues). Briefly, tumors were minced and incubated for 2-4 h at 37° C. with Collagenase III (Wortington Biomedical) or Liberase TH and TM (Roche) and 100 Kunitz U of DNase I (Sigma) in 20 mL of RPMI medium with 20 mM Hepes buffer. Single-cell suspensions were filtered through 40-μm nylon cell strainers and washed with Hanks' balanced saline solution (HBSS; Sigma) containing 2% heat-inactivated fetal bovine serum (FBS). Red blood cells were lysed with ACK lysis buffer, and dissociated bulk tumor cells were either cultured or stained with various antibodies in HBSS/2% FBS for further flow analysis or sorting on a BD FacsAria (BD Biosciences). […]
Bioluminescence imaging. […] Signals are presented as total photon flux and analyzed using Living Image 3.0 software (Caliper Life Sciences).

phospho-EGFR (Y845) = test: immunoblot of phospho-EGFR (Y845) in siCD44-transfected MDA-MB-231 cells; format: cell-based, human; settings: siCD44 MDA-MB-231 cells in suspension, inhibitor for 6 hours
Method: FIG. 23. CD44 promotes EGFR stability and activity in clusters. A. Immunoblots of phospho-EGFR (Y845), EGFR and actin of TN1-PDX tumor cells in clustering assays upon CD44 knockdown for 36 hours. B. Real-time PCR showing no significant (NS) effect of siCD44 on EGFR mRNA levels. Immunoblots of phospho-EGFR (Y845) and total EGFR of MDA-MB-231 cells in suspension for 48 hours after transfected with scramble control (con), siCD44, or siEGFR. D. Immunoblots of phospho-EGFR (Y845) in MDA-MB-231 cells, transfected with siCD44, either adherent (adh) or in suspension in the presence of proteasome inhibitor (MG-132) or endocytosis inhibitor (sucrose) for 6 hours. E. Immunoprecipitation of CD44-FLAG and detection of EGFR by immunoblot.
Western blot. Cells were lysed by RIPA buffer supplemented with Amresco protease inhibitor cocktail (1:100 diluted) and centrifuged for 10 mins at 4 degrees and 10,000 RPM. Protein concentration was measured and 20 ug of protein was loaded for each sample. Antibodies used: EGFR, p-EGFR, b-actin (abcam).

[3] = Erlotinib 50 mg/kg daily orally for 4 weeks

Cc1cc(=O)oc2cc(O)ccc12 [4-MU, 4-methylumbelliferone]
aggregation of MDA-MB-231 cells in suspension (MDA-MB-231 cells [1]): did not significantly alter the aggregation

C#Cc1cccc(Nc2ncnc3cc(OCCOC)c(OCCOC)cc23)c1 [Erlotinib]
PDX-derived tumor cell cluster formation, counts and size (TN1 PDX tumor cells; incubation with Erlotinib (1-10 μM), 72 hours): dramatically reduced PDX-derived tumor cell cluster formation, both the counts and size
primary tumor formation (MDA-MB-231 cells [2]; [3]): no effects on primary tumor formation
spontaneous lung metastasis (MDA-MB-231 cells [2]; [3]): significantly and dramatically reduced the spontaneous lung metastasis
CTC clusters in dual colors in the blood (MDA-MB-231 cells [2]; Erlotinib vs vehicle): only detectable in the blood collected from the vehicle-treated mice
dual color metastasis colonies in the lungs (MDA-MB-231 cells [2]; Erlotinib vs vehicle): absent but with reduced single-colored colonies

CCn1c(=O)c(-c2ccc(-c3cncs3)cc2Cl)cc2cnc(Nc3ccc(N4CCN(C)CC4)cc3)nc21 [FRAX597]
ex vivo aggregation of TN1 PDX tumor cells (cluster size and number) (TN1 PDX tumor cells; FRAX597 500 nM for 72 hours): partially blocked the ex vivo aggregation

CC(C)C[C@@H](C=O)NC(=O)[C@H](CC(C)C)NC(=O)[C@H](CC(C)C)NC(=O)OCc1ccccc1 [MG-132] (Cbz-Leu-Leu-Leu-aldehyde)
p-EGFR levels reduced by CD44 knockdown (phospho-EGFR (Y845)): rescued

OC[C@H]1O[C@@](CO)(O[C@H]2O[C@H](CO)[C@@H](O)[C@H](O)[C@H]2O)[C@@H](O)[C@@H]1O [sucrose]
p-EGFR levels reduced by CD44 knockdown (phospho-EGFR (Y845)): rescued
